Measured values: patent US6602852B1, “Basic peptides and pharmaceutical compositions containing same” (NST NeuroSurvival Technologies, Ltd., priority 1998, dated 2003)

How the values were obtained:
Cardiolipin (CL) = system: Cardiolipin (CL)
Method: As control, wells were coated with ethanol only. The coated plates were washed 3 times with 100 ul of blocking buffer (PBS containing 0.3% gelatin (Sigma) and 1 mM EDTA) to block non specific binding. A 5 min incubation time was used between each wash. Normal plasma (Ilex, Italy, 84670-11) and Lupus plasma (either from Gradipore, Australia, LAHP-1, or from Biopool, Ventura, Calif.) were prepared according to the producer instruction. The plasma was diluted 1/10 in the blocking buffer and was added to the CL and ethanol coated wells. Binding of different NST 300 compounds to CL was performed by addition of serial dilutions of NST compounds (prepared in the plasma/blocking buffer solution) to the CL or ethanol coated wells. Following 3 hr incubation, the plates were washed twice with PBS/BSA buffer (0.4% bovine serum albumin (BSA) in PBS). For detection of anticardiolipin binding property of the tested plasma, the plates were incubated with a 1/10000 dilution of Peroxidase-conjugated affinity purified Goat anti-human IgG (Jackson Immunoresearch lab.) in PBS/BSA buffer for 1 hour. The plates were then washed 3 times with PBS/BSA buffer, and color reaction was developed by incubation with 100 ul of 0-phenylenediamine (OPD) dihydrochloride (Sigma p-7288) at a concentration of 0.4 mg/ml in 0.05 M phosphate citrate buffer, pH 5.0 supplemented, with 4 ul of 30% hydrogen peroxide (Aldrich) for 10 ml mixture. To detect the level of NST 300 compound that was bound to CL, parallel wells were incubated with streptavidin conugated to OPD (SA-OPD, Jackson Immunoresearch lab.), that specifically recognize the biotinylated NST 300 compound. The resulting colour changes were recorded at […] using a Bio Tek Elx800 Eliza reader.

apoptotic hepatocytes = assay type: in vivo
Method: All animals were killed 2 hr after administration of antibody followed by organ removal. Heart, lung and liver were collected.
Formalin fixed paraffin-embedded tissues were sectioned (5 μm) for staining with Hematoxylin/Eosin or other techniques.
Endogenous peroxidase activity was blocked by incubation with 3% H2O2.
After washing with PBS, staining was developed with 3,3-diaminobenzidine tetrahydrochloride (DAB), and counterstained with Hematoxylin.
Liver sections from different lobes were used for detection of stained apoptotic cells compared to normal cells.
The percentage of apoptotic cells in the fields was estimated by evaluating parallel sections stained with Hematoxylin/Eosin. Analysis was performed blindly, since the pathologist performing the histological evaluation was unaware of the assignment of mice to the treatment or control group.

[1] = system: procoagulant activity of apoptotic HeLa S3 cells; conditions: 0.5 μM
Method: In the standard APTT test, clot formation is triggered by recalcification of plasma and addition of cephalin, i.e. negatively-charged phospholipids. Time until clot formation was measured as described in Example 3. […] In the modified APTT test, used in the present study, the addition of negatively-charged phospholipids (cephalin) was replaced by addition of apoptotic cells.
The cultured medium was discarded, and cells that were loosely attached to the growing surface, were collected in PBS, as described in Example 2B. These cells were washed and resuspended in TBS, and were regarded as advanced apoptotic cells. Equal numbers of apoptotic or control non-treated cells (10^5) in a volume of 100 μl, were mixed with 100 μl of 25 mM of CaCl2 and the clotting time was measured. […] Inhibition of their procoagulant activity by NST300 compounds was tested following pre-incubation of apoptotic cells with the different NST300 compounds.
Pre-incubation of equal numbers of apoptotic or control non-treated cells (10^5) with NST300 compounds was for 10 minutes at room temperature in a final volume of 100 μl. The compounds were used at concentration of 0.5 μM. The results can be seen in FIG. 5a.

[2] = system: Cardiolipin (CL) / anti β2GPI
Method: Antiphospholipid antibodies (APLA) comprise a family of antibodies characterized by their reactivity with negatively charged phospholipids in vitro. The target or many anti-phospholipid antibodies is either a complex between anionic phospholipid and the plasma protein Apolipoprotein-H (β2GPI) or the protein β2GPI alone bound to PS (McNeil et al., 1990, Matsurra et al., 1994). […] The assay was performed as essentially described above for anti CL ELISA with several modifications. […] Following washes, the wells were incubated for 1 hour with 1/10000 of Peroxidase-conjugated affinity purified rabbit anti goat IgG (Jackson Immunoresearch lab. PA) in PBS/BSA buffer. Washes and development were as described for anti CL ELISA. In the following experiments, CL coated wells were incubated with 1/500 dilution or affinity purified goat anti-human β2GPI in 10% normal plasma (as a source for β2GPI protein and buffering condition).

BeWo cells = system: BeWo cells
Method: (§1) Anti β2GPI antibodies are present in sera of APS patients. […] For cell-ELISA tests, HUVEC cells or BeWo cells (both at 40,000/well), were plated on 96 well tissue culture plates (Nunc) in 200 ul of the culture medium, and allowed to grow for 18-22 hours. Following 2 washes with Hepes buffer (10 mM Hepes pH, 8, 140 mM NaCl) and 5 min incubation with the culture medium, the wells were incubated for 3 hr with 10% of normal plasma in PBS (as a source of β2GPI protein), supplemented with 1/500 of goat anti-human Apolipoprotein-H (β2GPI) (Affinity Biologicals, Pa.) Parallel control wells were incubated with 10% of normal plasma from Ilex. Serial dilutions of NST compounds were prepared in plasma/PBS. Washes and development were as described for anti CL ELISA.

HUVEC cells = system: HUVEC cells
Method: as §1

Substance: Myristate-KKKKKRFSFKKSFKLSGFSFKKNKKK (SEQUENCE ID NO. 2)-(biotin) [NST302]
- concentration at which binding to CL reached saturation (Cardiolipin (CL); CL coated ELISA wells): about 0.3 μM
- concentration from which displacement of Lupus plasma binding to CL starts (Cardiolipin (CL); Lupus plasma from Gradipore): 0.1 µM
- concentration of maximum effect of displacement of Lupus plasma from CL (Cardiolipin (CL); Lupus plasma from Gradipore): 2.5 µM
- staining in normal hepatocytes (apoptotic hepatocytes; animals injected with NST302 only): never observed
- staining of liver in anti-Fas treated mice (apoptotic hepatocytes; intravenous, 5 μM, avidin biotin peroxidase detection): observed at cytoplasma and cytoplasmatic border of apoptotic hepatocytes
- effect on procoagulant effect of apoptotic cells ([1]; FIG. 5a): fully reversing
- increase of clotting time by a factor ([1]; apoptotic cells): 2
- concentration of complete inhibition of anti β2GPI binding to CL ([2]; 10% normal plasma): 50 µM
- concentrations giving significant displacement of anti β2GPI from CL ([2]; 10% normal plasma): 0.1 to 50 µM
- inhibition of anti β2GPI binding to CL ([2]; FIG. 6c): Complete inhibition
- concentration of maximum effect of displacement of anti β2GPI (BeWo cells): 50 µM
- blocking of binding to pro-coagulant surface of cells (BeWo cells; FIG. 6e): dramatic and significant ability to block binding
- concentration of maximum effect of displacement of anti β2GPI (HUVEC cells): 50 µM
- blocking of binding to pro-coagulant surface of cells (HUVEC cells; FIG. 6d): dramatic and significant ability to block binding
